Source: US9963442B2, “Pyridones as herbicides” (E I DU PONT DE NEMOURS AND COMPANY, priority 2014, dated 2018)

Legend:
Type in all cases: in vivo
[1] = test system: wheat (Triticum aestivum); test: Test A postemergence application; settings: approx. 10 days
Description: (§1) Seeds of plant species selected from barnyardgrass (Echinochloa crus-galli), kochia (Kochia scoparia), ragweed (common ragweed, Ambrosia elatior), Italian ryegrass (Lolium multiflorum), giant foxtail (Setaria faberii), and pigweed (Amaranthus retroflexus) were planted into a blend of loam soil and sand and treated preemergence with a directed soil spray using test chemicals formulated in a non-phytotoxic solvent mixture which included a surfactant. At the same time, plants selected from these weed species and also wheat (Triticum aestivum), corn (Zea mays), blackgrass (Alopecurus myosuroides), and galium (catchweed bedstraw, Galium aparine) were planted in pots containing the same blend of loam soil and sand and treated with postemergence applications of test chemicals formulated in the same manner. Plants ranged in height from 2 to 10 cm and were in the one- to two-leaf stage for the postemergence treatment. Treated plants and untreated controls were maintained in a greenhouse for approximately 10 days, after which time all treated plants were compared to untreated controls and visually evaluated for injury. Plant response ratings, summarized in Table A, are based on a 0 to 100 scale where 0 is no effect and 100 is complete control. A dash (-) response means no test result.

[2] = test system: pigweed (Amaranthus retroflexus); test: Test A postemergence application; settings: approx. 10 days
Description: as §1

[3] = test system: blackgrass (Alopecurus myosuroides); test: Test A postemergence application; settings: approx. 10 days
Description: as §1

kochia (Kochia scoparia) [4] = test: Test A postemergence application; settings: approx. 10 days
Description: as §1

corn (Zea mays) = test: Test A postemergence application; settings: approx. 10 days
Description: as §1

[5] = test system: Italian ryegrass (Lolium multiflorum); test: Test A postemergence application; settings: approx. 10 days
Description: as §1

[6] = test system: giant foxtail (Setaria faberii); test: Test A postemergence application; settings: approx. 10 days
Description: as §1

[7] = test system: ragweed (common ragweed, Ambrosia elatior); test: Test A postemergence application; settings: approx. 10 days
Description: as §1

[8] = test system: barnyardgrass (Echinochloa crus-galli); test: Test A postemergence application; settings: approx. 10 days
Description: as §1

[9] = test system: galium (catchweed bedstraw, Galium aparine); test: Test A postemergence application; settings: approx. 10 days
Description: as §1

[10] = test system: pigweed (Amaranthus retroflexus); test: Test A preemergence, directed soil spray; settings: approx. 10 days
Description: as §1

kochia (Kochia scoparia) [11] = test: Test A preemergence, directed soil spray; settings: approx. 10 days
Description: as §1

[12] = test system: Italian ryegrass (Lolium multiflorum); test: Test A preemergence, directed soil spray; settings: approx. 10 days
Description: as §1

[13] = test system: giant foxtail (Setaria faberii); test: Test A preemergence, directed soil spray; settings: approx. 10 days
Description: as §1

[14] = test system: ragweed (common ragweed, Ambrosia elatior); test: Test A preemergence, directed soil spray; settings: approx. 10 days
Description: as §1

[15] = test system: barnyardgrass (Echinochloa crus-galli); test: Test A preemergence, directed soil spray; settings: approx. 10 days
Description: as §1

[16] = test system: ducksalad (Heteranthera limosa); test: Test B flooded paddy test; set-up: key: 0 = no effect, 100 = complete control; settings: Flood, 250 g ai/ha applied to paddy water at 2-leaf stage; visually evaluated after 13 to 15 days; scale 0 (no effect) to 100 (complete control)
Method: (§2) Plant species in the flooded paddy test selected from rice (Oryza sativa), sedge, umbrella (small-flower umbrella sedge, Cyperus difformis), ducksalad (Heteranthera limosa), and barnyardgrass (Echinochloa crus-galli) were grown to the 2-leaf stage for testing. At time of treatment, test pots were flooded to 3 cm above the soil surface, treated by application of test compounds directly to the paddy water, and then maintained at that water depth for the duration of the test. Treated plants and controls were maintained in a greenhouse for 13 to 15 days, after which time all species were compared to controls and visually evaluated. Plant response ratings, summarized in Table B, are based on a scale of 0 to 100 where 0 is no effect and 100 is complete control. A dash (-) response means no test result.

rice (Oryza sativa) = test: Test B flooded paddy test; set-up: key: 0 = no effect, 100 = complete control; settings: Flood, 250 g ai/ha applied to paddy water at 2-leaf stage; visually evaluated after 13 to 15 days; scale 0 (no effect) to 100 (complete control)
Method: as §2

[17] = test system: barnyardgrass (Echinochloa crus-galli); test: Test B flooded paddy test; set-up: key: 0 = no effect, 100 = complete control; settings: Flood, 250 g ai/ha applied to paddy water at 2-leaf stage; visually evaluated after 13 to 15 days; scale 0 (no effect) to 100 (complete control)
Method: as §2

[18] = test system: sedge, umbrella (small-flower umbrella sedge, Cyperus difformis); test: Test B flooded paddy test; set-up: key: 0 = no effect, 100 = complete control; settings: Flood, 250 g ai/ha applied to paddy water at 2-leaf stage; visually evaluated after 13 to 15 days; scale 0 (no effect) to 100 (complete control)
Method: as §2

Row | Compound | Plant response rating (0 to 100 scale, 0 no effect, 100 complete control), Wheat ([1]; 31 g ai/ha) | Plant response rating (0 to 100 scale, 0 no effect, 100 complete control), Wheat ([1]; 125 g ai/ha) | Plant response rating (0 to 100 scale, 0 no effect, 100 complete control), Pigweed ([2]; 31 g ai/ha) | Plant response rating (0 to 100 scale, 0 no effect, 100 complete control), Pigweed ([2]; 125 g ai/ha) | Plant response rating (0 to 100 scale, 0 no effect, 100 complete control), Blackgrass ([3]; 31 g ai/ha) | Plant response rating (0 to 100 scale, 0 no effect, 100 complete control), Blackgrass ([3]; 125 g ai/ha) | Plant response rating (0 to 100 scale, 0 no effect, 100 complete control), Kochia (kochia (Kochia scoparia) [4]; 31 g ai/ha) | Plant response rating (0 to 100 scale, 0 no effect, 100 complete control), Kochia (kochia (Kochia scoparia) [4]; 125 g ai/ha) | Plant response rating (0 to 100 scale, 0 no effect, 100 complete control), Corn (corn (Zea mays); 31 g ai/ha) | Plant response rating (0 to 100 scale, 0 no effect, 100 complete control), Corn (corn (Zea mays); 125 g ai/ha) | Plant response rating (0 to 100 scale, 0 no effect, 100 complete control), Ryegrass, Italian ([5]; 31 g ai/ha) | Plant response rating (0 to 100 scale, 0 no effect, 100 complete control), Ryegrass, Italian ([5]; 125 g ai/ha) | Plant response rating (0 to 100 scale, 0 no effect, 100 complete control), Foxtail, Giant ([6]; 31 g ai/ha) | Plant response rating (0 to 100 scale, 0 no effect, 100 complete control), Foxtail, Giant ([6]; 125 g ai/ha) | Plant response rating (0 to 100 scale, 0 no effect, 100 complete control), Ragweed ([7]; 31 g ai/ha) | Plant response rating (0 to 100 scale, 0 no effect, 100 complete control), Ragweed ([7]; 125 g ai/ha) | Plant response rating (0 to 100 scale, 0 no effect, 100 complete control), Barnyardgrass ([8]; 31 g ai/ha) | Plant response rating (0 to 100 scale, 0 no effect, 100 complete control), Barnyardgrass ([8]; 125 g ai/ha) | Plant response rating (0 to 100 scale, 0 no effect, 100 complete control), Galium ([9]; 31 g ai/ha) | Plant response rating (0 to 100 scale, 0 no effect, 100 complete control), Galium ([9]; 125 g ai/ha) | further results
1 | O=c1cccc(Oc2ncc(Cl)cn2)n1-c1ncc(C(F)(F)F)cn1 [Compound 5] | 0 | 0 | 70 | 90 | 30 | 50 | 40 | 60 | 0 | 10 | 0 | 30 | 10 | 80 | 30 | 80 | 0 | 20 | 50 | 90 | Plant response rating (0 to 100 scale, 0 no effect, 100 complete control), Pigweed ([10]; 31 g ai/ha): 90; Plant response rating (0 to 100 scale, 0 no effect, 100 complete control), Pigweed ([10]; 125 g ai/ha): 100; Plant response rating (0 to 100 scale, 0 no effect, 100 complete control), Kochia (kochia (Kochia scoparia) [11]; 31 g ai/ha): 0; Plant response rating (0 to 100 scale, 0 no effect, 100 complete control), Kochia (kochia (Kochia scoparia) [11]; 125 g ai/ha): 100; Plant response rating (0 to 100 scale, 0 no effect, 100 complete control), Ryegrass, Italian ([12]; 31 g ai/ha): 0; Plant response rating (0 to 100 scale, 0 no effect, 100 complete control), Ryegrass, Italian ([12]; 125 g ai/ha): 0; Plant response rating (0 to 100 scale, 0 no effect, 100 complete control), Foxtail, Giant ([13]; 31 g ai/ha): 70; Plant response rating (0 to 100 scale, 0 no effect, 100 complete control), Foxtail, Giant ([13]; 125 g ai/ha): 100; Plant response rating (0 to 100 scale, 0 no effect, 100 complete control), Ragweed ([14]; 31 g ai/ha): 0; Plant response rating (0 to 100 scale, 0 no effect, 100 complete control), Ragweed ([14]; 125 g ai/ha): 80; Plant response rating (0 to 100 scale, 0 no effect, 100 complete control), Barnyardgrass ([15]; 31 g ai/ha): 0; Plant response rating (0 to 100 scale, 0 no effect, 100 complete control), Barnyardgrass ([15]; 125 g ai/ha): 80; Plant response rating, Ducksalad [16]: 85; Plant response rating, Rice (rice (Oryza sativa)): 0; Plant response rating, Barnyardgrass [17]: 0; Plant response rating, Sedge, Umbrella [18]: 75
2 | O=c1cccc(Oc2ncc(Cl)cn2)n1-c1ccc(Cl)cn1 [Compound 8] | 0 | 0 | 80 | 90 | 10 | 20 | 70 | 90 | 10 | 20 | 10 | 20 | 20 | 70 | 30 | 70 | 10 | 30 | 60 | 70 | Plant response rating (0 to 100 scale, 0 no effect, 100 complete control), Pigweed ([10]; 31 g ai/ha): 70; Plant response rating (0 to 100 scale, 0 no effect, 100 complete control), Pigweed ([10]; 125 g ai/ha): 100; Plant response rating (0 to 100 scale, 0 no effect, 100 complete control), Kochia (kochia (Kochia scoparia) [11]; 31 g ai/ha): 30; Plant response rating (0 to 100 scale, 0 no effect, 100 complete control), Kochia (kochia (Kochia scoparia) [11]; 125 g ai/ha): 100; Plant response rating (0 to 100 scale, 0 no effect, 100 complete control), Ryegrass, Italian ([12]; 31 g ai/ha): 0; Plant response rating (0 to 100 scale, 0 no effect, 100 complete control), Ryegrass, Italian ([12]; 125 g ai/ha): 10; Plant response rating (0 to 100 scale, 0 no effect, 100 complete control), Foxtail, Giant ([13]; 31 g ai/ha): 40; Plant response rating (0 to 100 scale, 0 no effect, 100 complete control), Foxtail, Giant ([13]; 125 g ai/ha): 80; Plant response rating (0 to 100 scale, 0 no effect, 100 complete control), Ragweed ([14]; 31 g ai/ha): 0; Plant response rating (0 to 100 scale, 0 no effect, 100 complete control), Ragweed ([14]; 125 g ai/ha): 20; Plant response rating (0 to 100 scale, 0 no effect, 100 complete control), Barnyardgrass ([15]; 31 g ai/ha): 0; Plant response rating (0 to 100 scale, 0 no effect, 100 complete control), Barnyardgrass ([15]; 125 g ai/ha): 30; Plant response rating, Ducksalad [16]: 75; Plant response rating, Rice (rice (Oryza sativa)): 0; Plant response rating, Barnyardgrass [17]: 0; Plant response rating, Sedge, Umbrella [18]: 65
